Data set [1] concerns the target T1, Serine/threonine-protein kinase PLK4 (Homo sapiens, UniProt O00444).
T1 sequence (O00444 whole entry): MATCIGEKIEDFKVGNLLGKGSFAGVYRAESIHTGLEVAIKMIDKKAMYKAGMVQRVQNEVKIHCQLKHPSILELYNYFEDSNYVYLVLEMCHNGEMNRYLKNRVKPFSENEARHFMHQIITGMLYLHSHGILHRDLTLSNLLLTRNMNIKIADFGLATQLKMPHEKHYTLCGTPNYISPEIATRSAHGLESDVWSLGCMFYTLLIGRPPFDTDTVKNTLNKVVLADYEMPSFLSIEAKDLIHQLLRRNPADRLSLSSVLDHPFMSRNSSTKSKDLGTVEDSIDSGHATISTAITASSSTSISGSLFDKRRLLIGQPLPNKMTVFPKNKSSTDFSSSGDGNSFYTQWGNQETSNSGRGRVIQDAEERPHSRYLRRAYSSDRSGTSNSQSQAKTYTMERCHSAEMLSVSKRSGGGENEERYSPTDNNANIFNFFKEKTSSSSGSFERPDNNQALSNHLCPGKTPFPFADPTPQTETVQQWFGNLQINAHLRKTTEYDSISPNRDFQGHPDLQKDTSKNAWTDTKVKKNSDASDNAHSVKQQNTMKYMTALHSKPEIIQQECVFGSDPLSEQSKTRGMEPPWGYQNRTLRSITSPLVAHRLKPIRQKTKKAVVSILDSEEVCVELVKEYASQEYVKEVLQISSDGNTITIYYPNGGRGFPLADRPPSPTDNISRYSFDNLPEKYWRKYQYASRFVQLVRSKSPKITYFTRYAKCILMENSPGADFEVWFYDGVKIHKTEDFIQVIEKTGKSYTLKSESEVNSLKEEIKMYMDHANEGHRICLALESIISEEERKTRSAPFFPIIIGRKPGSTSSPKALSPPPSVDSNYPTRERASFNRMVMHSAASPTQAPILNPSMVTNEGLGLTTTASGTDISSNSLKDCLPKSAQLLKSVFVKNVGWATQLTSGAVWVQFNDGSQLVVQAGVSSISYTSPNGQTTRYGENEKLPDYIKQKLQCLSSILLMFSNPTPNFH
As to the kind of experiment: Inhibition of N-terminal GST-tagged human PLK4 (1 to 391 amino acids) expressed in Escherichia coli using TMB as substrate after 30 mins by indirect ELISA assay.

Data set [2] concerns the target Serine/threonine-protein kinase PLK1 (Homo sapiens, UniProt P53350). The data set can be described thus: Inhibition of PLK1 (unknown origin) by FRET-based homogeneous assay.
Data set [3] has as its system SK-BR-3. As to the kind of experiment: Antiproliferative activity against human SKBR3 cells assessed as growth inhibition after 5 days by SRB assay. Format: functional. Conditions: SK-BR-3, 120 h.
The test system of data set [4] is HCC1954. As to the kind of experiment: Antiproliferative activity against human HCC1954 cells assessed as growth inhibition after 5 days by SRB assay. Conditions: HCC1954, 120 h. Format: functional.
For data set [5], the target named is Serine/threonine-protein kinase PLK3 (Homo sapiens, UniProt Q9H4B4). The data set can be described thus: Inhibition of PLK3 (unknown origin) by FRET-based homogeneous assay.
In data set [6] the test system is MDA-MB-231. The data set can be described thus: Antiproliferative activity against human MDA-MB-231 cells assessed as growth inhibition after 5 days by SRB assay. Format: functional. Conditions: MDA-MB-231, 120 h.
Data set [7] has as its system MCF7. The data set can be described thus: Antiproliferative activity against human MCF7 cells assessed as growth inhibition after 5 days by SRB assay. Type of data set: functional. Conditions: MCF7, 120 h.
The subject of data set [8] is MDA-MB-468. As to the kind of experiment: Antiproliferative activity against human MDA-MB-468 cells assessed as growth inhibition after 5 days by SRB assay. Format: functional. Conditions: MDA-MB-468, 120 h.
Data set [9] deals with Serine/threonine-protein kinase PLK2 (Homo sapiens, UniProt Q9NYY3). As to the kind of experiment: Inhibition of PLK2 (unknown origin) by FRET-based homogeneous assay.
Data set [10] can be described thus: Permeability of the compound at pH 7.4 by PAMPA. Conditions: read-out: permeability. Format: ADME.

SMILES strings stand for the structures.

This is an account of results in ChEMBL document CHEMBL2406977, “The discovery of PLK4 inhibitors: (E)-3-((1H-Indazol-6-yl)methylene)indolin-2-ones as novel antiproliferative agents” (J Med Chem, 2013).

Serine/threonine-protein kinase PLK1, sequence (P53350 whole entry): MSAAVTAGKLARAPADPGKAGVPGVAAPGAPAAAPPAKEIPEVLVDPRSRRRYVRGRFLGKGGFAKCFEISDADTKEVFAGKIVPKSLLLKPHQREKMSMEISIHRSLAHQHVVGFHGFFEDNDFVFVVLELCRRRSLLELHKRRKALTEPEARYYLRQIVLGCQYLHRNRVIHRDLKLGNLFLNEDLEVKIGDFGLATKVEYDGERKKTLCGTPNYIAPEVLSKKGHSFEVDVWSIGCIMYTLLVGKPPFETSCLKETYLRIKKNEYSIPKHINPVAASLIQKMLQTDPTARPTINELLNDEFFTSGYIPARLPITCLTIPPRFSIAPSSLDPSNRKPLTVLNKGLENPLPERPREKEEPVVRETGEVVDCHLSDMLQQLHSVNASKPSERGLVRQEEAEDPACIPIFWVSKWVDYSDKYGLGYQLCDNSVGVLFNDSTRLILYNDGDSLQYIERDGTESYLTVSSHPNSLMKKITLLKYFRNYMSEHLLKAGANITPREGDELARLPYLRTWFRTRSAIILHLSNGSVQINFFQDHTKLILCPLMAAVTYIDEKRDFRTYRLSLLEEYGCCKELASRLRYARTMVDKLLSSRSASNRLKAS
Serine/threonine-protein kinase PLK2, sequence (Q9NYY3 whole entry): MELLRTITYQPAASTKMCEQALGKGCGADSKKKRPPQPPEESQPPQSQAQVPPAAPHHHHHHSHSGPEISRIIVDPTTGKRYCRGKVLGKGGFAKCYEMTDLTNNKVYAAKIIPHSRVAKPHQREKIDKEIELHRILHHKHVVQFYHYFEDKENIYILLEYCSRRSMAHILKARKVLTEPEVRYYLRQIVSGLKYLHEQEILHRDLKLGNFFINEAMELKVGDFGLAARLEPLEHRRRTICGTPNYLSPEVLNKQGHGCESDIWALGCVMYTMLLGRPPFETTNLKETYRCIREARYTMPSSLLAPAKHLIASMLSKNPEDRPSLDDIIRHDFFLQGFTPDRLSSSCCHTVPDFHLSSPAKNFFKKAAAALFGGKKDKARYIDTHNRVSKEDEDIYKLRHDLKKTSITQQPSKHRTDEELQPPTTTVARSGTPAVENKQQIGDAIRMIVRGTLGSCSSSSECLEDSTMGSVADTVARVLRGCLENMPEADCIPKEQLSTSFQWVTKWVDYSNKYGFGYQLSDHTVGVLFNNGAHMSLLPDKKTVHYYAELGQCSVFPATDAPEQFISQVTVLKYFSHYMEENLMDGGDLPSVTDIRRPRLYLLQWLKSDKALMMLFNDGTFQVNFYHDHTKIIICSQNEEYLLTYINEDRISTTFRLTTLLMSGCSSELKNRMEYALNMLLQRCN
Serine/threonine-protein kinase PLK3, sequence (Q9H4B4 whole entry): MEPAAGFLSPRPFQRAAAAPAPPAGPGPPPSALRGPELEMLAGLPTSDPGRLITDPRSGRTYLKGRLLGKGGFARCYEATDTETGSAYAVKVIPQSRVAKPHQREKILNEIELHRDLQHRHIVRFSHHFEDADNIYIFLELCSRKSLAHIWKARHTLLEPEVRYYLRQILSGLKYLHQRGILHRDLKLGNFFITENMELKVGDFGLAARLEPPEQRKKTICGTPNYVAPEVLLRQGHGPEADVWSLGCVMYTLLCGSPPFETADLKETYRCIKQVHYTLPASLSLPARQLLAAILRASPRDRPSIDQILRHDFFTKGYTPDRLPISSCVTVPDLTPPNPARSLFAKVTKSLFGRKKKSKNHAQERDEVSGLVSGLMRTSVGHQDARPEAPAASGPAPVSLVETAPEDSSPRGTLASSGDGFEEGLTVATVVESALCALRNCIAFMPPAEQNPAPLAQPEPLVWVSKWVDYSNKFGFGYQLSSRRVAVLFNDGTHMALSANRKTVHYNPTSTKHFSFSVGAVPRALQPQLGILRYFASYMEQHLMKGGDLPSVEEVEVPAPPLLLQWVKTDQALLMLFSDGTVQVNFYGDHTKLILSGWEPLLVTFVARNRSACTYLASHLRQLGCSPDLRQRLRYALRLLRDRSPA

On to `O=C1Nc2ccccc2/C1=C/c1ccc(O)cc1`, for which the values for the 50% inhibitory concentration (IC50) in data set [1] and in data set [2] were 0.23 µM and 25 µM, respectively.
As for `COc1ccc2c(c1)/C(=C\c1ccc3c(/C=C/c4cccnc4)n[nH]c3c1)C(=O)N2`, the GI50 was 4.6 µM in data set [3]; more than 50 µM in data set [4]; more than 50 µM in data set [6]; 0.12 µM in [7]; 0.19 µM in [8]. Further, the IC50 in data set [1] is 0.00048 µM; in data set [5], more than 10 µM; in [9], more than 10 µM; in data set [2], more than 10 µM.
As for `CC(=O)Nc1ccc2c(c1)/C(=C\c1ccc3cn[nH]c3c1)C(=O)N2`, the IC50 was 6.3 µM in [1], more than 10 µM in [5], 10 µM in data set [9] and more than 10 µM in data set [2].
`O=C1Nc2cc(Cl)ccc2/C1=C\c1ccc2cn[nH]c2c1`: the IC50 in data set [1] is 1.3 µM; in [5] it was more than 10 µM; in data set [9] it was more than 10 µM; in data set [2], 26 µM.
Turning to `O=C1Nc2ccccc2/C1=C\c1ccc2[nH]nnc2c1`, the IC50 was 2.2 µM in [1], more than 10 µM in [5], 8.9 µM in [9] and 29 µM in data set [2].
Consider `COc1ccc2c(c1)/C(=C\c1ccc3c(/C=C/c4ccncc4)n[nH]c3c1)C(=O)N2`, for which the GI50 in data set [4] was 3.1 µM; in data set [6], 21 µM; in [7], 0.04 µM; in [8], 0.14 µM. In addition, the IC50 in data set [1] is 0.00045 µM; in [5] it was more than 10 µM; in data set [9], more than 10 µM; in [2] it was more than 10 µM.
On to `COc1ccc2c(c1)/C(=C\c1ccc3c(/C=C/c4ccc(CN(C)C)cc4)n[nH]c3c1)C(=O)N2`, for which the GI50 in [3] is 0.03 µM; in data set [4] it was 1.4 µM; in data set [6], 0.01 µM; in [7], less than 0.01 µM; in [8], 0.03 µM. Besides, the IC50 in data set [1] was 0.00032 µM; in data set [5], more than 10 µM; in data set [9] it was more than 10 µM; in data set [2] it was more than 10 µM.
As for `O=C1Nc2ccccc2/C1=C\c1ccc2c(/C=C/c3ccccn3)n[nH]c2c1`, the GI50 in data set [3] was 1.2 µM; in [4] it was 30 µM; in data set [6], 8.1 µM; in data set [7] it was 1.7 µM; in data set [8], 0.78 µM. The IC50 in data set [1] is 0.013 µM; in data set [5] it was more than 10 µM; in data set [9], more than 10 µM; in data set [2] it was more than 10 µM.
Turning to `CCc1ccc2c(c1)/C(=C\c1ccc3c(/C=C/c4cccnc4)n[nH]c3c1)C(=O)N2`, the GI50 in [3] is 13 µM; in data set [4], 33 µM; in [6], more than 50 µM; in data set [7] it was 1.7 µM; in [8] it was 0.09 µM. Moreover, the half-inhibitory concentration (IC50) in data set [1] is 0.0016 µM; in [5] it was more than 10 µM; in [9], more than 10 µM; in data set [2], more than 10 µM.
As for `COc1cc(/C=C2\C(=O)Nc3ccc(Br)cc32)cc(Cl)c1O`, the results for the IC50 in data set [1] and in [2] were 0.86 µM and 3.6 µM, respectively.
On the same counts, the results for `O=C1Nc2ccc(Br)cc2/C1=C/c1ccc(O)c(O)c1` are 13 µM and more than 10 µM.
Taken in the same sequence, the figures for `COc1cc(/C=C2\C(=O)N(C)c3ccc(Br)cc32)cc(Cl)c1O` were 6.1 µM and more than 10 µM.
Consider `CC(=O)Nc1ccc2c(c1)NC(=O)/C2=C/c1ccc2cn[nH]c2c1`, for which the IC50 in [1] is 1.2 µM; in data set [5] it was more than 10 µM; in data set [9] it was 10 µM; in data set [2], more than 10 µM.
On to `O=C1Nc2ccccc2/C1=C/c1ccc2[nH]ncc2c1`, for which the half-maximal inhibitory concentration (IC50) in [1] is 0.39 µM; in data set [5], 11 µM; in data set [9], 1.9 µM; in [2], 20 µM.
Regarding `COc1cc(/C=C2\C(=O)Nc3ccc(Br)cc32)cc(Br)c1OC`, the IC50 was 13 µM in data set [1] and more than 10 µM in data set [2].
On the same counts, the results for `O=C1Nc2ccccc2/C1=C/c1ccccc1O` are 6.1 µM and 29 µM.
For `Cc1ccc2c(c1)/C(=C\c1ccc3c(/C=C/c4ccncc4)n[nH]c3c1)C(=O)N2`, the GI50 in data set [3] was more than 50 µM; in [4], 13 µM; in data set [6], 5 µM; in data set [7], 0.07 µM; in data set [8], 0.12 µM. For the same molecule, the IC50 was 0.0014 µM in [1], more than 10 µM in data set [5], more than 10 µM in [9] and more than 10 µM in data set [2].
For `O=C1Nc2ccc(I)cc2/C1=C/c1cc(Br)c(O)c(Br)c1`, the IC50 amounted to 0.23 µM in data set [1] and 4.6 µM in [2].
With `O=C1Nc2ccccc2/C1=C\c1ccc2cn[nH]c2c1`, the IC50 in data set [5] was more than 10 µM; in [9], 5.7 µM; in data set [2], 24 µM.
Take `O=C1Nc2ccc(Cl)cc2/C1=C\c1ccc2cn[nH]c2c1`: the concentration for half-maximal inhibition (IC50) in data set [1] is 0.054 µM; in data set [5] it was more than 10 µM; in [9], more than 10 µM; in [2], more than 10 µM.
`O=C1Nc2ccc(O)cc2/C1=C\c1ccc2c(/C=C/c3ccncc3)n[nH]c2c1`: the GI50 in data set [3] was more than 50 µM; in data set [4] it was more than 50 µM; in data set [7], more than 50 µM; in data set [8], 0.73 µM. For the same molecule, the Papp in data set [10] amounted to 4 ×10⁻⁶ cm/s. In addition, the IC50 in data set [1] was 0.0009 µM; in data set [5], more than 10 µM; in data set [9], more than 10 µM; in [2] it was more than 10 µM.
As for `O=C1Nc2ccccc2/C1=C/c1cccc(O)c1`, the IC50 worked out at 0.86 µM in data set [1] and 25 µM in [2].
As to `COc1ccc2c(c1)/C(=C\c1ccc3cn[nH]c3c1)C(=O)N2`, the half-maximal inhibitory concentration (IC50) in data set [1] was 0.047 µM; in [5] it was less than 10 µM; in data set [9] it was less than 10 µM; in data set [2], 10 µM.
Turning to `O=C1Nc2ccccc2/C1=C\c1ccc2c(/C=C/c3ccccc3)n[nH]c2c1`, the GI50 is 12 µM in [3], more than 50 µM in [6], 5.2 µM in data set [7] and 4.4 µM in data set [8]. Further, the IC50 in data set [1] was 0.042 µM; in data set [5], more than 10 µM; in data set [9] it was more than 10 µM; in data set [2], more than 10 µM.
For `CNC(=O)c1ccc2c(c1)/C(=C\c1ccc3cn[nH]c3c1)C(=O)N2`, the 50% inhibitory concentration (IC50) in data set [1] turned out to be 10 µM; in [2], 49 µM.
On to `O=C1Nc2ccc(F)cc2/C1=C/c1ccc2cn[nH]c2c1`, for which the IC50 was 0.24 µM in data set [1], 24 µM in data set [5], more than 10 µM in data set [9] and 15 µM in [2].
Take `O=C1Nc2ccccc2/C1=C\c1ccc2c(/C=C/c3cccnc3)n[nH]c2c1`: the GI50 in [3] was more than 50 µM; in data set [4], 12 µM; in [6], more than 50 µM; in [7], 0.28 µM; in data set [8] it was 0.29 µM. The concentration for half-maximal inhibition (IC50) in [1] is 0.002 µM; in data set [5], more than 10 µM; in [9], more than 10 µM; in data set [2], more than 10 µM.
Take `O=C1Nc2ccc(F)cc2/C1=C\c1ccc2cn[nH]c2c1`: the IC50 in [1] was found to be 0.06 µM; in data set [9], 4.4 µM; in data set [2], 15 µM.
Regarding `O=C1Nc2ccc(Cl)cc2/C1=C\c1ccc2c(/C=C/c3ccncc3)n[nH]c2c1`, the GI50 in data set [3] was more than 50 µM; in data set [4], more than 50 µM; in data set [6], more than 50 µM; in data set [7] it was 0.16 µM; in [8], 0.32 µM. Moreover, the IC50 in data set [1] was 0.0023 µM; in data set [5] it was more than 10 µM; in data set [9] it was more than 10 µM; in data set [2], more than 10 µM.
As for `CNC(=O)c1ccccc1Sc1ccc2c(/C=C/c3ccccn3)n[nH]c2c1` [AXITINIB], the concentration for 50% growth inhibition (GI50) in data set [4] is 2.7 µM; in data set [8] it was 1.3 µM.
